{"source": "paper PMC3705412", "about": "“PTP1B Inhibitory and Anti-Inflammatory Effects of Secondary Metabolites Isolated from the Marine-Derived Fungus Penicillium sp. JF-55” (Marine Drugs, 2013)", "key": {"[1]": {"molecular_target": "T1, PTP1B (human, recombinant) (Homo sapiens, UniProt P18031)", "T1 construct": "purchased BIOMOL Research Laboratories, Inc", "T1 sequence (P18031 1-435)": "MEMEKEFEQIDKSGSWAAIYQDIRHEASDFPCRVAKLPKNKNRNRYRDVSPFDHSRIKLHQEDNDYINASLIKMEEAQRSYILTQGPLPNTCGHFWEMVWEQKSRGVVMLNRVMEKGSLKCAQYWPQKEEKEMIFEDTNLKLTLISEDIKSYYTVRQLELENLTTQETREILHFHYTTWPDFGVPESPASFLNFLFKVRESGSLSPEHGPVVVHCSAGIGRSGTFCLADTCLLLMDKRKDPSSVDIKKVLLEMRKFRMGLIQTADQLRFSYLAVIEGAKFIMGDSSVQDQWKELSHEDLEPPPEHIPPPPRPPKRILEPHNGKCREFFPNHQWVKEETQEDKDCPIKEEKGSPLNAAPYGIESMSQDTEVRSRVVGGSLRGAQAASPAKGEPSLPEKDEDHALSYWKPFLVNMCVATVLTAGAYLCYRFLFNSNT", "test": "PTP1B assay (pNPP hydrolysis)", "type": "biochemical", "protocol": "PTP1B (human, recombinant) was purchased from BIOMOL Research Laboratories, Inc. Enzyme activity was measured in a reaction mixture containing 2 mM p-nitrophenyl phosphate (pNPP) in 50 mM citrate, pH 6.0 (composition: 0.1 M NaCl, 1 mM EDTA, and 1 mM dithiothreitol (DTT)). The reaction mixture was placed in an incubator maintained at 30 °C for 30 min, and the reaction was terminated by the addition of 1 N NaOH. The amount of p-nitrophenol produced was estimated by measuring the increase in absorbance at 405 nm. The nonenzymatic hydrolysis of 2 mM pNPP was corrected by measuring the increase in absorbance at 405 nm in the absence of PTP1B enzyme. For the kinetic analysis, the reaction mixture consisted of different concentrations of pNPP as a PTP1B substrate in the absence or presence of compound 1, and assays were performed as described above. The Michaelis-Menten constant (Km) and maximum velocity (Vmax) of PTP1B were determined by the Lineweaver-Burk plot using a GraphPad Prism® 4 program (GraphPad Software Inc., San Diego, CA, USA)."}, "iNOS": {"tested_on": "iNOS", "test": "Western blotting of iNOS protein expression in LPS-stimulated macrophages", "type": "cell-based, murine (C57BL/6 mice)", "settings": "pre-treatment 12 h, LPS 1 μg/mL 18 h", "protocol": "Figure 3 The effects of penstyrylpyrone (1) (A), anhydrofulvic acid (2) (B), and citromycetin (3) (C) on the protein expression of iNOS and COX-2 in murine peritoneal macrophages stimulated with LPS. Murine peritoneal macrophages were pre-treated for 12 h at the indicated compound concentrations and stimulated for 18 h with LPS (1 μg/mL). Western blotting analysis was performed, and the representative blots of three independent experiments are shown.\nC57BL/6 mice were purchased from Orient Bio Co. (Sungnam, Kyung-Kido, Korea). TG-elicited peritoneal macrophages were harvested four days after intraperitoneal (i.p.) injection of 3 mL of TG [37]. Peritoneal lavage was performed using 8 mL of Hanks’ Balanced Salt Solution containing 10 U/mL heparin. The cells were distributed in Roswell Park Memorial Institute medium (RPMI) supplemented with 10% heat-inactivated FBS, in 6-well tissue culture plates (5 × 10^6 cells/mL).\nWestern blotting analysis was performed by lysing the cells in 20 mM Tris-HCl buffer (pH 7.4) containing a protease inhibitor mixture (0.1 mM PMSF, 5 mg/mL aprotinin, 5 mg/mL pepstatin A, and 1 mg/mL chymostatin). The protein concentration was determined using a Lowry protein assay kit (P5626; Sigma Chemical Co., St. Louis, MO, USA). […]"}, "[2]": {"tested_on": "murine peritoneal macrophages", "test": "Cell viability assay (MTT)", "type": "cell-based, murine (C57BL/6 mice)", "design": "dose or concentration left out as unconfirmed"}, "[3]": {"tested_on": "anti-oxidant response element (ARE)", "test": "ARE-luciferase activation in macrophages", "type": "cell-based, murine (C57BL/6 mice)", "settings": "1 h, 5% FBS", "protocol": "Figure 7 The effects of penstyrylpyrone (1) on the nuclear translocation of Nrf2 (A) and anti-oxidant response element (ARE) activation (B) in murine peritoneal macrophages. Murine peritoneal macrophages were treated with 40 μM of penstyrylpyrone (1) for 15, 30, 60, 90 and 120 min. The nuclei were fractionated from the cytosol using PER-Mammalian Protein Extraction buffer. Nrf2 protein was detected using Western blotting analysis and representative blots of three independent experiments are shown. Quiescent cells transiently transfected with ARE-luciferase or control vector were incubated for 1 h with indicated concentrations of latifolin in the presence of 5% FBS. Cell lysates were assayed for luciferase activity and depicted by fold induction by normalizing the transfection efficiency and dividing the values of each experiment relative to the control. * p < 0.05 compared to the control group."}, "[4]": {"tested_on": "IL-1β production in murine peritoneal macrophages", "test": "IL-1β production in LPS-stimulated macrophages, ELISA", "type": "cell-based, murine (C57BL/6 mice)", "settings": "Mus musculus, Peritoneal macrophage; pre-treated 12 h, LPS 1 μg/mL 18 h", "protocol": "C57BL/6 mice were purchased from Orient Bio Co. (Sungnam, Kyung-Kido, Korea). TG-elicited peritoneal macrophages were harvested four days after intraperitoneal (i.p.) injection of 3 mL of TG [37]. Peritoneal lavage was performed using 8 mL of Hanks’ Balanced Salt Solution containing 10 U/mL heparin. The cells were distributed in Roswell Park Memorial Institute medium (RPMI) supplemented with 10% heat-inactivated FBS, in 6-well tissue culture plates (5 × 10^6 cells/mL). The level of PGE2, TNF-α or IL-1β present in each sample was determined using a commercially available kit from R & D Systems. The assay was performed according to the manufacturer’s instructions. Briefly, murine peritoneal macrophages were cultured in 24-well plates, pre-incubated for 12 h with different concentrations of compounds 1–3, and then stimulated for 18 h with LPS. The cell culture supernatants were then immediately collected after treatment and centrifuged at 13,000× g for 2 min to remove particulate matter. The medium was added to a 96-well plate pre-coated with affinity-purified PGE2-specific polyclonal antibodies or the medium was added to a 96-well plate pre-coated with affinity-purified polyclonal antibodies that were specific to mouse TNF-α or IL-1β. An enzyme-linked polyclonal antibody specific for PGE2, mouse TNF-α or IL-1β was added to the wells for 20 h, followed by a final wash to remove any unbound antibody-enzyme reagent. A substrate solution was added, and the intensity of the color produced, which was measured at 450 nm (the correction wavelength was set at 540 nm or 570 nm), was proportional to the amount of PGE2, TNF-α or IL-1β present."}}}
{"smiles": "COc1cc(/C=C/c2ccccc2)oc(=O)c1C", "note": "[Penstyrylpyrone (1), penstyrylpyrone]", "values": [{"measurement": "IC50", "setting": "[1]; 2 mM pNPP, pH 6.0, 30 °C, 30 min, read-out: PTP1B inhibitory activity IC50", "result": 5.28, "unit": "µM"}, {"measurement": "Mode of PTP1B inhibition (Lineweaver-Burk, non-linear regression)", "setting": "[1]; different concentrations of pNPP", "result": "competitive"}, {"measurement": "iNOS expression", "setting": "iNOS", "result": "decreased"}, {"measurement": "Cytotoxicity (cell viability)", "setting": "[2]", "result": "non-cytotoxic"}, {"measurement": "ARE activation (luciferase)", "setting": "[3]", "result": "gradually increased in a dose-dependent manner"}, {"measurement": "IC50", "setting": "[4]", "result": 13.5, "unit": "µM"}]}
